# Assay results published in patent US20120301895A1, “METHODS OF MODULATING BINDING OF SON OF SEVENLESS TO PHOSPHATIDIC ACID AND IDENTIFYING COMPOUNDS THAT MODULATE SUCH BINDING” (THE RESEARCH FOUNDATION OF STATE UNIVERSITY OF NEW YORK, priority 2007, published 2012).
# Molecular target: T1, PLD1 (Homo sapiens, UniProt Q13393)
# T1 construct: made in house
# T1 sequence (Q13393 1-1074): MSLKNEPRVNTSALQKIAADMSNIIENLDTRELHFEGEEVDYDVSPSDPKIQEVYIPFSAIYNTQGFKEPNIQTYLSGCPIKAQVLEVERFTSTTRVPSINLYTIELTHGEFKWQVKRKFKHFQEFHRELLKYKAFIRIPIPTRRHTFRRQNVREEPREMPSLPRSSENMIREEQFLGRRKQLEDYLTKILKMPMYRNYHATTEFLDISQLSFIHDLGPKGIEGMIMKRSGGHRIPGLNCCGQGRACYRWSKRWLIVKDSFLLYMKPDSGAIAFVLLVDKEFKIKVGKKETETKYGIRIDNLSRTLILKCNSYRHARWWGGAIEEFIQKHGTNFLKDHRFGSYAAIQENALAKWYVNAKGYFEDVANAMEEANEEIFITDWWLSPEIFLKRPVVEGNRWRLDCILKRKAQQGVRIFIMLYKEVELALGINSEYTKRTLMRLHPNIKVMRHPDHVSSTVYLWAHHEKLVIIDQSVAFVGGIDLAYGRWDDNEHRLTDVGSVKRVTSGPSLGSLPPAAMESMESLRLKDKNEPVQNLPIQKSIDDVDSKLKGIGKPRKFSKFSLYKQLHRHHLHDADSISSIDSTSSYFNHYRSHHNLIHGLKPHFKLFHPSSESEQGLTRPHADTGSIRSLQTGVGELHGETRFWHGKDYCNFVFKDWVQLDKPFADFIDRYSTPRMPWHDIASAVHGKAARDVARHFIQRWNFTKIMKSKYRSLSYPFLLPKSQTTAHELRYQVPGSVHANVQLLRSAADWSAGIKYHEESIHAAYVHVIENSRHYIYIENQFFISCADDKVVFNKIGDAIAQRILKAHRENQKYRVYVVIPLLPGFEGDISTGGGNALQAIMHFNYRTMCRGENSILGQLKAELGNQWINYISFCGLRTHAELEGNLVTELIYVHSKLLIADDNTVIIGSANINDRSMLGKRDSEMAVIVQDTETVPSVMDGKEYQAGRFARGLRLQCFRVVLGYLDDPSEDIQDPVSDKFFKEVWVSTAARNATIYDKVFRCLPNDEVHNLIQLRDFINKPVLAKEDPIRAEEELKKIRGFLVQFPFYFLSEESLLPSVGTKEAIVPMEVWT
# Test: In vitro PLD activity, exogenous substrate assay, PLD1
# Type: biochemical
# Settings: purified recombinant PLD1 with ARF-1, 30 min at 37° C.
# Description: In FIG. 13A, MDA-MB-231 cells were plated as in FIGS. 12A-C and then shifted to either 10% serum or 0.5% serum overnight as indicated. Honokiol (20 μM) or control ethanol was then added for 4 hr as indicated, at which time the cells were harvested and the levels of PBt were determined as in FIGS. 12A-C. The experiment shown is representative of at least three independent experiments. In FIG. 13B, the effect of honokiol on the activity of PLD isoforms was measured using exogenous substrate assay as described previously (Henage et al., “Kinetic Analysis of a Mammalian Phospholipase D: Allosteric Modulation by Monomeric GTPases, Protein Kinase C, and Polyphosphoinositides,” J. Biol. Chem. 281:3408-17 (2006), which is hereby incorporated by reference in its entirety). […] The amount of background was determined and subtracted using a bovine serum albumin standard. […]
# For in vivo PLD activity, cells were plated in 60 mm culture dishes in DMEM with 10% serum at a density that would allow them to grow to about 80% confluence after 2 days, then cells were shifted to DMEM containing 0.5% or 10% serum as indicated in the figure legends overnight. […] Briefly, PLD activity was measured by the release of [methyl-^3H] choline from [choline-methyl-^3H]dipalmitoyl-phosphatidylcholine. […]
smiles,measurement,value
"C=CCc1ccc(O)c(-c2ccc(O)c(CC=C)c2)c1 [honokiol, Honokiol]",in vitro activity of PLD1,no significant effect
